The record followed here is paper PMC12445474, “Conservation of heat stress acclimation by the IPK2-type kinases that control the synthesis of the inositol pyrophosphate 4/6-InsP7 in land plants” (PLOS Genetics, 2025).

For data set [1], the target named is T1, AtIPK2β (Arabidopsis thaliana, UniProt Q9FLT2).
T1 construct: gene IPK2b; full-length CDS in pET28b, N-terminal His8-MBP-TEV, E. coli BL21 (RIL); tag removed by TEV for ITC, His8-MBP fusion for kinase assays
T1 sequence (Q9FLT2 1-300): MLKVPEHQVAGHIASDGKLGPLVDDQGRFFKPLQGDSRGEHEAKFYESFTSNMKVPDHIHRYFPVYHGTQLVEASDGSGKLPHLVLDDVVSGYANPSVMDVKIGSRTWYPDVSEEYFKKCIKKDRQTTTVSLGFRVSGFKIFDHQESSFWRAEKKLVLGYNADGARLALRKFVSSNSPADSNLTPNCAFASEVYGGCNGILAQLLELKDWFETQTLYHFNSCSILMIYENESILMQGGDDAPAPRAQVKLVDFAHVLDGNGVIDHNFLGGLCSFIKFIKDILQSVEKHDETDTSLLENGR
The data set is described as follows: isothermal titration calorimetry. The class given is binding.

Another data set addresses T2, AtIPK2α (Arabidopsis thaliana, UniProt Q9LY23).
T2 construct: gene IPK2a; full-length CDS in pET28b, N-terminal His8-MBP-TEV, E. coli BL21 (RIL); tag removed by TEV for ITC, His8-MBP fusion for kinase assays
T2 sequence (Q9LY23 1-286): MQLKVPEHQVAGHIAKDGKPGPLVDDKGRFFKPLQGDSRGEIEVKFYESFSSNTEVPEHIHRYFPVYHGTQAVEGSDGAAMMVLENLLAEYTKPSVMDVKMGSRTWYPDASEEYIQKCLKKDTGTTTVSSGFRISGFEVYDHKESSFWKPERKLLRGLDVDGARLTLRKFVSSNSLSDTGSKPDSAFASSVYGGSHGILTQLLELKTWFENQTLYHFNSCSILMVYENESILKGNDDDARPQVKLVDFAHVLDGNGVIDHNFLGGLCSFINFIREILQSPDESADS
Briefly: isothermal titration calorimetry. The format is binding.

Data set [2] deals with T3, MpIPMK (Marchantia polymorpha, UniProt A0A2R6WAL0).
T3 construct: gene MARPO_0118s0021; full-length CDS in pET28b, N-terminal His8-MBP fusion, E. coli, Ni-NTA purified in PBS; tag kept
Briefly: in vitro kinase assay, PAGE and CE-MS of products. The format is biochemical. The following applies: 12.5 mM ATP, 10 nmol InsP6, 5 mM MgCl2, 20 mM HEPES pH 7.5, 1 mM DTT, 37 °C, 12 h.

In data set [3] the target is T4, AtIPK2β (Arabidopsis thaliana (Col-0), UniProt Q9FLT2 1-300).
T4 sequence: T1 sequence (Q9FLT2 1-300)
Briefly: EMSA; 50-200 nM protein, 250 nM probe; EMSA: 250 nM FAM probe, 15 min on ice (30 min pre-incubation with partner or InsP), 6% native PAGE; binding buffer not stated (proteins purified in PBS pH 7.4). The following applies: protein: recombinant; tags: N-terminal His8-MBP-TEV; label: 5' FAM on strand 1; 5' overhang 4 nt at both ends, 26 bp duplex.

Data set [4] has as its target T5, MpIPMK (Marchantia polymorpha (Tak-1), UniProt A0A2R6WAL0 1-319).
T5 sequence: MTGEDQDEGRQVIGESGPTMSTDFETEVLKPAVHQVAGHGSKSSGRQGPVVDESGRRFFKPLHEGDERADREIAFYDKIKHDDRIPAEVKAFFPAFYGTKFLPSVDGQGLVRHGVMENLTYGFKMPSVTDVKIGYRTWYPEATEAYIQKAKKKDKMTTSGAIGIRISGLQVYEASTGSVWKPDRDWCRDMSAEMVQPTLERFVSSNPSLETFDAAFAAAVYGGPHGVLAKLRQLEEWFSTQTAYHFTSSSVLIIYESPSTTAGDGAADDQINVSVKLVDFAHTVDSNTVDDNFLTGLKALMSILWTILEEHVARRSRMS
The data set is described as above. The following applies: protein: recombinant; tags: N-terminal His8-MBP; label: 5' FAM on strand 1; 5' overhang 4 nt at both ends, 26 bp duplex.

Data set [5] addresses T6, AtHSFA1b (Arabidopsis thaliana, UniProt O81821 1-481). The data set is described as follows: EMSA; 25-200 nM protein, 250 nM probe; EMSA: 250 nM FAM probe, 15 min on ice (30 min pre-incubation with partner or InsP), 6% native PAGE; binding buffer not stated (proteins purified in PBS pH 7.4). The following applies: protein: recombinant; tags: N-terminal His8-MBP; chain copies: 3; label: 5' FAM on strand 1; 5' overhang 4 nt at both ends, 26 bp duplex.

The target in data set [6] is T6, AtHSFA1b. The data set is described as follows: EMSA; 50-200 nM protein, 250 nM probe; EMSA: 250 nM FAM probe, 15 min on ice (30 min pre-incubation with partner or InsP), 6% native PAGE; binding buffer not stated (proteins purified in PBS pH 7.4). The following applies: protein: recombinant; tags: N-terminal His8-MBP; chain copies: 3; label: 5' FAM on strand 1; 5' overhang 4 nt at both ends, 18 bp duplex.

T6 sequence (O81821 whole entry): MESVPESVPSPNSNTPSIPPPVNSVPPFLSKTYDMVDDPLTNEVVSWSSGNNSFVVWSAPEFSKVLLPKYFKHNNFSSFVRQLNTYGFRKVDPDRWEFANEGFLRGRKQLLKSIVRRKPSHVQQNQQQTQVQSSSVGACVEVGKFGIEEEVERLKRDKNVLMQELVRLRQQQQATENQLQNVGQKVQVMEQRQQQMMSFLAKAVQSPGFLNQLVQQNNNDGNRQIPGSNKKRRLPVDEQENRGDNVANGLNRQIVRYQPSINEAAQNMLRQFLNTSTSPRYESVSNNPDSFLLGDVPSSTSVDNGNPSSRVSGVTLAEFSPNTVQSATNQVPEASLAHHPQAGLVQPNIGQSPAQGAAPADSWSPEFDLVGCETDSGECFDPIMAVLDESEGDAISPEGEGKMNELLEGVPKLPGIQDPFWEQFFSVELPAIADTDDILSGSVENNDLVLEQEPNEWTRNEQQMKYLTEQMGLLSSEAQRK

Take `O=P(O)(O)O[C@@H]1[C@H](O)[C@H](O)[C@@H](OP(=O)(O)O)[C@H](OP(=O)(O)O)[C@H]1O` [Ins(1,4,5)P3]: the values for the Kd at AtIPK2β [1] and on AtIPK2α were ~6 µM and ~7 µM, respectively.
In the case of `O=P(O)(O)O[C@H]1[C@H](OP(=O)(O)O)[C@@H](OP(=O)(O)O)[C@H](OP(=O)(O)O)[C@@H](OP(=O)(O)O)[C@H]1OP(=O)(O)O` [InsP6], the Kd on AtIPK2β [1] was ~0.5 µM; at AtIPK2α it was ~2 µM. For the same molecule, at MpIPMK [2], the kinase activity entry is listed as “demonstrating that MpIPMK phosphorylates InsP6 in vitro”.

B1: FAM-HSE (AtHSP18.1 promoter element) (dsDNA)
DNA 1: CTCGGTCGATCGAGAAGCTTCTGCATGATG
DNA 2: AAACCATCATGCAGAAGCTTCTCGATCGAC
For B1, the binding result was “no binding” in the data set with AtIPK2β [3], “no binding” with MpIPMK [4] and “binds” with AtHSFA1b [5].

B2: HSE∆ (dsDNA)
DNA 1: CTCGGTCGATCGATGCATGATG
DNA 2: AAACCATCATGCATCGATCGAC
For the molecule B2, the binding result with AtHSFA1b [6] is listed as “no binding”.
